Results as given in patent US9914711B2 (priority 2013, dated 2018).

Assays:
C. violaceum CV026 = assay: Preliminary screening of bacterial quorum sensing agonistic / inhibitory activity on LB plate (purple stain / white circle); type: cell-based; settings: for Regulatory activity (bacterial quorum sensing regulatory activity): 1 μl of 0.065M compound spotted on plate, inhibitory screen with inducer C6-HSL, 30° C., 16-18 h; for Effect on bacterial quorum sensing (summary in words): summary of the activity evaluation experiments
Protocol: 1.1 Preparation work: different compounds to be tested (Compounds 1-40 prepared in Example 1-40) were weighted and then were dissolved in 200 μl DMSO (dimethyl sulfoxide) to prepare a solution at a concentration of 0.065M. 5.0 mg inducer, N-hexanoyl homoserine lactone (C6-HSL, purchased from Sigma Company), was weighted and was dissolved in 200 μl DMSO (at a concentration of 0.125M), and the compounds and the inducer were stored at 4 for further use. C. violaceum CV026 (donated by Professor McLean J C from Texas State University) in LB culture medium (LB culture medium consisting of 1% (percentage by mass) tryptone, 0.5% (percentage by mass) yeast extract, 1% (percentage by mass) NaCl and water) was cultured under shaking in a shaker at 30, 200 rpm to get the culture medium for further use.
1.2 Method for preliminary screening of compounds having agonistic activity: 400 μl C. violaceum CV026 (at a bacterial concentration of 1×10^8/ml) was added to 5 ml melted semi-solid LB culture medium, and was mixed well; the mixed culture medium was poured into a solid LB plate; when the mixed culture medium was solidified on the plate, lattice was made thereon; 1 μl of the dissolved compounds to be tested (Compounds 1-40 in Examples 1-40, at a concentration of 0.065M) was spotted on the plate; when the compounds on the plate was dried in air, the plate was put in a 30° C. oven upside down and was cultured for a period of 16-18 h. If the compound to be tested has an agonistic effect on C. violaceum CV026 on the LB plate, purple stain will be induced on the LB plate. The agonistic activity of a compound is determined depending on whether purple stain is induced for C. violaceum CV026 on LB plate as well as the purple depth.
1.3 Method for preliminary screening of compounds having inhibitory activity: the inducer C6-HSL was diluted gradiently to 1000 times by means of 2-fold dilution; 15 μl diluted inducer and 400 μl C. violaceum CV026 in exponential phase (at a bacterial concentration of 1×10^8/ml) were mixed well and then were added to a 5 ml melted semi-solid LB culture medium; the mixture of inducer, C. violaceum, and semi-solid LB was poured onto a solid LB plate; when the mixture was solidified on the plate, lattice was made thereon: 1 μl of the dissolved compounds to be tested (Compounds 1-40 in Examples 1-40, at a concentration of 0.065M) was spotted on the plate; when the compounds on the plate were dried in air, the plate was put in a 30° C. oven upside down and was cultured for a period of 16-18 h. If the compound to be tested has an inhibitory effect on C. violaceum CV026 on the LB plate, white circle will appear on the LB plate. The inhibitory activity of a compound is preliminary determined depending on the size of the white circle appeared after C. violaceum CV026 was inhibited on LB plate.
It is found after preliminary screening that 22 compounds according to the invention have bacterial quorum sensing regulatory activity, and the screening result was shown in Table 1.

| SMILES | Regulatory activity (bacterial quorum sensing regulatory activity) (C. violaceum CV026) | melting point | Effect on bacterial quorum sensing (summary in words) (C. violaceum CV026) |
| --- | --- | --- | --- |
| Cc1ccc(CCC(=O)NN2CCOC2=O)cc1 [Compound 38] | + | 146 to 148 °C |  |
| CCCCCCCCNC(=O)NN1CCOC1=O [Compound 19, 1-(2-oxo-oxazolidin-3-yl)-3-octyl urea] | − | 64 to 65 °C | inhibitory effect on bacterial quorum sensing |
| O=C(NCc1ccccc1)NN1CCOC1=O [Compound 23, 1-benzyl-3-(2-oxo-oxazolidin-3-yl)urea] |  | 160 to 161 °C |  |
| O=C(NCCc1ccccc1)NN1CCOC1=O [Compound 24, 1-(2-oxo-oxazolidin-3-yl)phenyl ethyl urea] |  | 123 to 125 °C |  |
| O=C(CCCc1ccccc1)NN1CCOC1=O [Compound 40, N-(2-oxo-oxazolidin-3-yl)-4-phenyl butanamide] | + | 104 to 107 °C |  |
| O=C(NN1CCOC1=O)c1ccccc1C(F)(F)F [Compound 10, 2-trifluoromethyl-N-(2-oxo-oxazolidin-3-yl)benzamide] | + | 139 to 141 °C |  |
| O=C(NN1CCOC1=O)c1ccccc1Cl [Compound 4, 2-chloro-N-(2-oxo-oxazolidin-3-yl)benzamide] | ± | 166 to 168 °C | both an agonizing effect and an inhibitory effect |
| O=C(Nc1cccc(Br)c1)NN1CCOC1=O |  | 197 to 199 °C |  |
| COc1ccc(CC(=O)NN2CCOC2=O)cc1 [Compound 32, 2-(4-methoxyphenyl)-N-(2-oxo-oxazolidin-3-yl)acetamide] | + | 90 to 92 °C |  |
| CCCCCCCNC(=O)NN1CCOC1=O [Compound 18, 1-(2-oxo-oxazolidin-3-yl)-3-heptyl urea] | − | 68 to 69 °C | inhibitory effect on bacterial quorum sensing |
| O=C1OCCN1NC(=S)Nc1ccc(F)cc1 [Compound 28, 1-(4-fluorophenyl)-3-(2-oxo-oxazolidin-3-yl)sulfourea] |  | 190 to 191 °C |  |
| O=C(Nc1ccc(OC(F)(F)F)cc1)NN1CCOC1=O |  | 205 to 206 °C |  |
| O=C(Nc1ccc(Br)cc1)NN1CCOC1=O [Compound 20, 1-(4-bromophenyl)-3-(2-oxo-oxazolidin-3-yl)urea] |  | 212 to 215 °C |  |
| O=C(NN1CCOC1=O)c1ccc(CCl)cc1 [Compound 3, 4-chloromethyl-N-(2-oxo-oxazolidin-3-yl)benzamide] | − | 206 to 208 °C | inhibitory effect on bacterial quorum sensing |
| O=C(CCc1ccc(Cl)cc1)NN1CCOC1=O [Compound 39] | + | 134 to 136 °C |  |
| O=C(NN1CCOC1=O)c1ccc(F)cc1 [Compound 1, 4-fluoro-N-(2-oxo-oxazolidin-3-yl)benzamide] |  | 189 to 192 °C |  |
| CCCCNC(=O)NN1CCOC1=O [Compound 15, 1-(2-oxo-oxazolidin-3-yl)-3-butyl urea] |  | 98 to 100 °C |  |
| O=C1OCCN1NC(=S)Nc1ccccc1 [Compound 27, 1-(2-oxo-oxazolidin-3-yl)phenylthiourea] |  | 191 to 193 °C |  |

| SMILES | Regulatory activity (bacterial quorum sensing regulatory activity) (C. violaceum CV026) | melting point | Effect on bacterial quorum sensing (summary in words) (C. violaceum CV026) |
| --- | --- | --- | --- |
| O=C(CCc1ccc([N+](=O)[O-])cc1)NN1CCOC1=O [Compound 36] | + | 143 to 145 °C |  |
| O=C(NN1CCOC1=O)c1ccc(F)cc1 [Compound 9, 4-fluoro-N-(2-oxo-oxazolidin-3-yl)benzamide] | + |  |  |
| Cc1cccc(NC(=O)NN2CCOC2=O)c1 |  | 191 to 192 °C |  |
| O=C(NC1CCCCC1)NN1CCOC1=O [Compound 22, 1-cyclohexyl-3-(2-oxo-oxazolidin-3-yl)urea] |  | 203 to 205 °C |  |
| O=C(Cc1ccc(Cl)cc1)NN1CCOC1=O [Compound 34, 2-(4-chlorophenyl)-N-(2-oxo-oxazolidin-3-yl)acetamide] | + | 124 to 127 °C |  |
| CCCCCNC(=O)NN1CCOC1=O [Compound 16, 1-(2-oxo-oxazolidin-3-yl)-3-pentyl urea] |  | 83 to 86 °C |  |
| O=C(Cc1ccc(F)cc1)NN1CCOC1=O [Compound 31, 2-(4-fluorophenyl)-N-(2-oxo-oxazolidin-3-yl)acetamide] | + | 131 to 134 °C |  |
| O=C(NN1CCOC1=O)c1ccccc1F [Compound 6, 2-fluoro-N-(2-oxo-oxazolidin-3-yl)benzamide] |  | 124 to 127 °C |  |
| O=C(Cc1ccc([N+](=O)[O-])cc1)NN1CCOC1=O [Compound 33, 2-(4-nitrophenyl)-N-(2-oxo-oxazolidin-3-yl)acetamide] | + | 180 to 183 °C |  |
| O=C(NN1CCOC1=O)c1cccc(F)c1 |  | 166 to 169 °C |  |
| O=C(NN1CCOC1=O)c1cccc(Cl)c1 [Compound 5, 3-chloro-N-(2-oxo-oxazolidin-3-yl)benzamide] | + | 151 to 152 °C |  |
| O=C(CCc1ccccc1)NN1CCOC1=O [Compound 37] | + |  |  |
| Cc1cccc(C(=O)NN2CCOC2=O)c1 [Compound 8, 3-methyl-N-(2-oxo-oxazolidin-3-yl)benzamide] | + | 148 to 150 °C |  |
| Cc1ccc(CC(=O)NN2CCOC2=O)cc1 [Compound 35, 2-(4-tolyl)-N-(2-oxo-oxazolidin-3-yl)acetamide] | + | 108 to 111 °C |  |
| Cc1ccc(NC(=O)NN2CCOC2=O)cc1 |  | 205 to 207 °C |  |
| CC(C)(C)c1ccc(C(=O)NN2CCOC2=O)cc1 [Compound 2, 4-tert-butyl-N-(2-oxo-oxazolidin-3-yl)benzamide] | − | 187 to 189 °C | inhibitory effect on bacterial quorum sensing |
| CCCCCCNC(=O)NN1CCOC1=O [Compound 17, 1-(2-oxo-oxazolidin-3-yl)-3-hexyl urea] |  | 74 to 75 °C |  |
